Test results from patent publication US12186295B2, “Ophthalmic compositions containing a nitric oxide releasing prostamide” (NICOX S.A., priority 2018, dated 2025).

Key:
[1] = Solubility in water and aqueous solutions; format: physicochemical; conditions: aqueous solution at pH 6.0 containing 0.5% (w/w) of macrogol 15-hydroxystearate (Kolliphor® HS15)
[2] = Impagnatiello et al., cited from earlier work

solubility [1]: 0.070 % (w/w)
Structure (SMILES): CCNC(=O)CCC/C=C\C[C@@H]1[C@@H](/C=C/[C@H](CCc2ccccc2)OC(=O)CCCCCO[N+](=O)[O-])[C@H](O)C[C@@H]1O [NCX 470, Hexanoic acid, 6-(nitrooxy)-, (1S,2E)-3-[(1R,2R,3S,5R)-2-[(2Z)-7-(ethylamino)-7-oxo-2-hepten-1-yl]-3,5-dihydroxycyclopentyl]-1-(2-phenylethyl)-2-propen-1-yl ester]
IOP-lowering efficacy versus equimolar doses of bimatoprost ([2]; British Journal of Pharmacology (2018), vehicle 0.25% Tween 80, 0.02% BAK, 2% glycerine, 0.1% EDTA): greater IOP-lowering efficacy
intra ocular pressure (IOP)-lowering agent ([2]; Invest Ophthalmol Vis Sci. 2015): effective
